Test results published in patent US20240269139A1, “COMPOUNDS FOR TARGETED PROTEIN DEGRADATION OF KINASES” (DANA-FARBER CANCER INSTITUTE, INC., priority 2020, published 2024).
Where two headings read alike, the source gives them in different places.

Assays:
Type in all cases: cell-based
[1] = target: protein kinases (human kinome) (Homo sapiens, UniProt P45983); settings: for logFC MAPK8 (P45983): Experiment wp152
[2] = target: protein kinases (human kinome) (Homo sapiens, UniProt P54753)
[3] = target: protein kinases (human kinome) (Homo sapiens, UniProt Q16832)
Sequence of protein kinases (human kinome) (Homo sapiens, UniProt Q16832) (Q16832 22-855): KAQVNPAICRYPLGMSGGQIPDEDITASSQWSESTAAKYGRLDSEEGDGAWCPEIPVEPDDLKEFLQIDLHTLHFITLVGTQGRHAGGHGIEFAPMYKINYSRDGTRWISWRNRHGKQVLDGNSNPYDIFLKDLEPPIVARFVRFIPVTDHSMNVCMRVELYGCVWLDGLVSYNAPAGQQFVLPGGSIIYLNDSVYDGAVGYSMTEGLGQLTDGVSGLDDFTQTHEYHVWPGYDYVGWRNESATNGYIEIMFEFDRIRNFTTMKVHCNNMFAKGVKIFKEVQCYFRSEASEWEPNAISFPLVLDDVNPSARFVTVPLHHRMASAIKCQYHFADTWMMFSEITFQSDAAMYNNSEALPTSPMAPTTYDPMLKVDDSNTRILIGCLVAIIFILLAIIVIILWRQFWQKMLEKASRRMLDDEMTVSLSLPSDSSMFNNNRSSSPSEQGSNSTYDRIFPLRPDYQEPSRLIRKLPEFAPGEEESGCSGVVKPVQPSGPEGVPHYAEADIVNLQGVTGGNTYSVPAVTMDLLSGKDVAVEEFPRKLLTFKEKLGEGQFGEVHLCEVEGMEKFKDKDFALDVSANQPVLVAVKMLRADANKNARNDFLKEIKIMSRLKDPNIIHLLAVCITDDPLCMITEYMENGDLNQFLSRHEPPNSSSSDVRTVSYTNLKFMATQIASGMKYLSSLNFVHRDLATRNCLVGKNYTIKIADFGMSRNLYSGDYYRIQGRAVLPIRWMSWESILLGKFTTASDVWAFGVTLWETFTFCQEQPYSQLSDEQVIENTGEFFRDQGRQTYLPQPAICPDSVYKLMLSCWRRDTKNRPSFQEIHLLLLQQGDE

[4] = target: protein kinases (human kinome) (Homo sapiens, UniProt Q9H999); settings: PANK3 (Q9H999); experiment wp152
[5] = target: protein kinases (human kinome) (Homo sapiens, UniProt Q8N165); settings: for logFC of PDIK1L (Q8N165): Experiment wp168; for logFC: PDIK1L (Q8N165), experiment wp168
Sequence of protein kinases (human kinome) (Homo sapiens, UniProt Q8N165) (Q8N165 whole entry): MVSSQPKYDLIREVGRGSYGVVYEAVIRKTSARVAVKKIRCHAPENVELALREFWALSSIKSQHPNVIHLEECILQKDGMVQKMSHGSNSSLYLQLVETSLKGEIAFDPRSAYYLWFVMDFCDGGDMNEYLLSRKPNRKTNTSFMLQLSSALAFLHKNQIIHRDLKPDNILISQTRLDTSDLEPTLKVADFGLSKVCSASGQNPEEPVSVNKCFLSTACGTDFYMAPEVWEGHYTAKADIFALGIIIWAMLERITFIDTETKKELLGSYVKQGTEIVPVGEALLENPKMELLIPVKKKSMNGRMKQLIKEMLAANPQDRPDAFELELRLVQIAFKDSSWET

[6] = target: protein kinases (human kinome) (Homo sapiens, UniProt Q16760); settings: protein DGKD (Q16760-1); experiment wp045; down
[7] = target: protein kinases (human kinome) (Homo sapiens, UniProt O60307); settings: experiment wp107
Sequence of protein kinases (human kinome) (Homo sapiens, UniProt O60307) (O60307 whole entry): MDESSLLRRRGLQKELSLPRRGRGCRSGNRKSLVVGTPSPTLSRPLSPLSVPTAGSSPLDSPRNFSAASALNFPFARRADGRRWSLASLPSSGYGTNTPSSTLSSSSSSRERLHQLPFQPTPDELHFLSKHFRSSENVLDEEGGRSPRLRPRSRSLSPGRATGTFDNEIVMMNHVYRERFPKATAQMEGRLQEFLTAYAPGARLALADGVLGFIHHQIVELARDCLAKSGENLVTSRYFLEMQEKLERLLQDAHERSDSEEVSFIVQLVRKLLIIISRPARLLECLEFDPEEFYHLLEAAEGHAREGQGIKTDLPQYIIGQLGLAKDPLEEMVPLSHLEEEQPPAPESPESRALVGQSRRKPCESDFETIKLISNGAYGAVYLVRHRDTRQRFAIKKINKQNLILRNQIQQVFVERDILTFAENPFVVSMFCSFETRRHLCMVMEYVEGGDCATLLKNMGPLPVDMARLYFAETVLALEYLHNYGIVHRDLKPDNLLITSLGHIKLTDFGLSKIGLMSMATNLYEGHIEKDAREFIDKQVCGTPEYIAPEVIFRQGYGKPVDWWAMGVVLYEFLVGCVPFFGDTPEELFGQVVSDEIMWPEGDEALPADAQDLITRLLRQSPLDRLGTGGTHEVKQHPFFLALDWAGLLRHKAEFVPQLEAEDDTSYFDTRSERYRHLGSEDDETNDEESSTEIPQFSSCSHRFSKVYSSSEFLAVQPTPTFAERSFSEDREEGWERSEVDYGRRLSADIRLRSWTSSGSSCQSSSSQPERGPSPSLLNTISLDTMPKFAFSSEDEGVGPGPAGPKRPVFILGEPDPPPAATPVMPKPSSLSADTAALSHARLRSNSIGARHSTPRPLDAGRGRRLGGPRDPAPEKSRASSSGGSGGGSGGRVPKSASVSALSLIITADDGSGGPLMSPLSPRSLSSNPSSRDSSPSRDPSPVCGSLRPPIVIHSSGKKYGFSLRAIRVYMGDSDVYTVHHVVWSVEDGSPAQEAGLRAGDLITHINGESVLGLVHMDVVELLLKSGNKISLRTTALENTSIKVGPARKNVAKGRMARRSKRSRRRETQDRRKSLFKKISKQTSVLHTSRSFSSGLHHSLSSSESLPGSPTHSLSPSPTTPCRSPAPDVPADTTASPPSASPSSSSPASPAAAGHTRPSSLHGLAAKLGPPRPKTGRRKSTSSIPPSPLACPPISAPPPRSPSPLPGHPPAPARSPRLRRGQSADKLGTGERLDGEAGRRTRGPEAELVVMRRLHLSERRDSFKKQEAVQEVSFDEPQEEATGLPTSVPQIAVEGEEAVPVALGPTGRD

[8] = target: protein kinases (human kinome) (Homo sapiens, UniProt P50750)
Sequence of protein kinases (human kinome) (Homo sapiens, UniProt P50750) (P50750 whole entry): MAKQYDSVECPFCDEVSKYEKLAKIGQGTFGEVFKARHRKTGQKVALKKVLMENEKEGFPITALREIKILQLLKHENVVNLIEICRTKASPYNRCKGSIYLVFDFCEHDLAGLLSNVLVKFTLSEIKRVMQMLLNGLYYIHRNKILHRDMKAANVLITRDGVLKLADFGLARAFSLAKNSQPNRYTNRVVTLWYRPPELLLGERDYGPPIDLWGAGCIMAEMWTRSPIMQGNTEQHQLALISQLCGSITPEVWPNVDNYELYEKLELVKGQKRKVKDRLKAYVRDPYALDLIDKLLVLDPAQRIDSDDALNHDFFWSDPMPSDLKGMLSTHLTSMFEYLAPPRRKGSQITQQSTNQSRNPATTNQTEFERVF

[9] = target: protein kinases (human kinome) (Homo sapiens, UniProt Q13131); settings: for logFC PRKAA1 (Q13131): direction down
Sequence of protein kinases (human kinome) (Homo sapiens, UniProt Q13131) (Q13131 whole entry): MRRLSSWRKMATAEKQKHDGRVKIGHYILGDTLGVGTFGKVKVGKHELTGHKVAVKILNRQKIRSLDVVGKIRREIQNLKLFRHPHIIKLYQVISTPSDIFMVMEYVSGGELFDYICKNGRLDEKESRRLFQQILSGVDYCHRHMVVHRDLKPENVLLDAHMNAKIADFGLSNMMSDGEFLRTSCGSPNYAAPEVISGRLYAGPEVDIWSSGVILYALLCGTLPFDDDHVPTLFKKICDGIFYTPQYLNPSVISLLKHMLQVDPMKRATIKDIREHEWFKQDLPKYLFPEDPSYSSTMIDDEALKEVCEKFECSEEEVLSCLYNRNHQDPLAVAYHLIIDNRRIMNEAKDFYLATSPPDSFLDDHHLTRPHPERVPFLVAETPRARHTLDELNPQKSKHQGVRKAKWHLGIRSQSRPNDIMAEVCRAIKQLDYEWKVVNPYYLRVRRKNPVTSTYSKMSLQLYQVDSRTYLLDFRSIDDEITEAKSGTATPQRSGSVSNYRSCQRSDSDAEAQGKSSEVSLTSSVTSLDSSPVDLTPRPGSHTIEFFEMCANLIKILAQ

[10] = target: T1, protein kinases (human kinome) (Homo sapiens, UniProt Q86YV5); settings: PRAG1 Q86YV5
T1 sequence (Q86YV5 1-1406): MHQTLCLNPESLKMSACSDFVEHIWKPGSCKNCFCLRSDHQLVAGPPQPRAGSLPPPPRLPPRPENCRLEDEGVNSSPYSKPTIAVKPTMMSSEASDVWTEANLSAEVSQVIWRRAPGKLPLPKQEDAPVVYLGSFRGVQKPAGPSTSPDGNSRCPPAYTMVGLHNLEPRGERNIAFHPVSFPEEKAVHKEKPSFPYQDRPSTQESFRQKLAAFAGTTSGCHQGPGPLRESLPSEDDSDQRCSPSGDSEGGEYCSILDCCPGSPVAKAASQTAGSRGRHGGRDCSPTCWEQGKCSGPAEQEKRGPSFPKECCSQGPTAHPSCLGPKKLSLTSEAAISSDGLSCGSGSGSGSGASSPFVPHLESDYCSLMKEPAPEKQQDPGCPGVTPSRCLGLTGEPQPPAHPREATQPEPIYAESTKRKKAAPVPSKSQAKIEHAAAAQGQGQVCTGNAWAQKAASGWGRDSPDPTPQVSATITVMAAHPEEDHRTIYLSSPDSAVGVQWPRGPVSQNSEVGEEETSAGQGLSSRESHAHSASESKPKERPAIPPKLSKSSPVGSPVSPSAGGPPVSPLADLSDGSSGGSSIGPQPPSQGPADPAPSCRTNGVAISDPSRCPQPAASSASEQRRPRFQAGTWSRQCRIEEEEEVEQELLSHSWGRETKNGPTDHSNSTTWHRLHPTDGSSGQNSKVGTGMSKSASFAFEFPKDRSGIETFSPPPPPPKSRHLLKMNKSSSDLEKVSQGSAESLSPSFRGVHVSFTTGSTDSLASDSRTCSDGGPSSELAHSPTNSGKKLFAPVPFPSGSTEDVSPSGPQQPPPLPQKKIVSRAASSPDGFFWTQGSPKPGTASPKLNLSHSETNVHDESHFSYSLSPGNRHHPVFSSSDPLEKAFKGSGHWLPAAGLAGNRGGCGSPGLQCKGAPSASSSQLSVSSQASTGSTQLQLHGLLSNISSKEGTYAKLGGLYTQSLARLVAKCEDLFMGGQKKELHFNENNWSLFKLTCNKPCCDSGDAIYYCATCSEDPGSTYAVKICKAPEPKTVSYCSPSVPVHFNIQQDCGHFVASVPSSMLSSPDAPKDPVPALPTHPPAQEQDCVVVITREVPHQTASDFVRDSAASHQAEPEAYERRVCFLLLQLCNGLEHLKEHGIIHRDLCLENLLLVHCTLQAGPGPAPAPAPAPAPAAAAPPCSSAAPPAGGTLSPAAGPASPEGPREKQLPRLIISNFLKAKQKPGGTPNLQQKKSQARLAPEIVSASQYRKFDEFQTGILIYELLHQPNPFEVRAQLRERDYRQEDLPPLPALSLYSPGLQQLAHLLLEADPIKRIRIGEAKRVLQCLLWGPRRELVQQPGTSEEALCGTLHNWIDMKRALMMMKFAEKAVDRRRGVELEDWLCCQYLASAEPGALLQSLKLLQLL

Sequence of protein kinases (human kinome) (Homo sapiens, UniProt P45983) (P45983 whole entry): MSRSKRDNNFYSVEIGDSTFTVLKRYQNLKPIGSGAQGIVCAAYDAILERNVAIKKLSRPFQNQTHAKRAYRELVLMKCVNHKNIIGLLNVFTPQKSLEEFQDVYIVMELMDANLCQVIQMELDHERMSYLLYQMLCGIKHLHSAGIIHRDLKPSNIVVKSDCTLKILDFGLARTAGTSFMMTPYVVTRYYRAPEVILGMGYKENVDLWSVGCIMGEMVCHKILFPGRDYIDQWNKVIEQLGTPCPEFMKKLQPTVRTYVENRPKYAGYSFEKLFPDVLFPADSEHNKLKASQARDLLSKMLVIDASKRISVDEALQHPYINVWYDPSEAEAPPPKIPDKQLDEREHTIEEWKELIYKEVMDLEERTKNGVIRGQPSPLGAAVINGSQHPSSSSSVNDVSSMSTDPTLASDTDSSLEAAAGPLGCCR
Sequence of protein kinases (human kinome) (Homo sapiens, UniProt P54753) (P54753 34-998): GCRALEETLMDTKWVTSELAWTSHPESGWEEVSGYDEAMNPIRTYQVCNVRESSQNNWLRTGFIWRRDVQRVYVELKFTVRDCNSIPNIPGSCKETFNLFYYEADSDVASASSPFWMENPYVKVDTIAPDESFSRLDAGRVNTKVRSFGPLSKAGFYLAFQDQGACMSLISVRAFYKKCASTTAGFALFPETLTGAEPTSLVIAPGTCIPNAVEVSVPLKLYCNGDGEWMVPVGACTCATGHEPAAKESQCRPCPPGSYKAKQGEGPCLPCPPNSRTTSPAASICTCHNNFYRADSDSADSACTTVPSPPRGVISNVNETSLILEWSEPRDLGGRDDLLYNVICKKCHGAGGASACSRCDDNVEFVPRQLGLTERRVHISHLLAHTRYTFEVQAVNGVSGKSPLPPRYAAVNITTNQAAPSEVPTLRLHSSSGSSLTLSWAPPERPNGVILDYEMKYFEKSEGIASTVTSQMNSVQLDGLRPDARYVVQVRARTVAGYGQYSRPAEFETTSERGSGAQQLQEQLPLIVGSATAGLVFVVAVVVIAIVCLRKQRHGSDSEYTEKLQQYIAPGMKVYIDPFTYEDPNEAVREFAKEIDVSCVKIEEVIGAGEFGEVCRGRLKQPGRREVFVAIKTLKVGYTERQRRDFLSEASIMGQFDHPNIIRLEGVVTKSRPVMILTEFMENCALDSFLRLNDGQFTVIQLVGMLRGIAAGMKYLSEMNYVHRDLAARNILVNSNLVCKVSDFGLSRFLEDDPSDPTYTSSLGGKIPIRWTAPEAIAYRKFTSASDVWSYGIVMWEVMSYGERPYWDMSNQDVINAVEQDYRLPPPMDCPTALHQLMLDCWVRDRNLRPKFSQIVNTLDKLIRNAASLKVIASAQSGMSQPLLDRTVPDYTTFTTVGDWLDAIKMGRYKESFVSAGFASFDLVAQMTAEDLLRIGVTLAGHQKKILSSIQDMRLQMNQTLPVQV

Cc1ccc(NC(=O)c2cccc(C(F)(F)F)c2)cc1N1Cc2cnc(Nc3ccc(N4CCN(Cc5cn(CCCCCOc6cccc7c6C(=O)N(C6CCC(=O)NC6=O)C7=O)nn5)CC4)nc3)nc2N(C)C1=O (centres unmarked) [DB0646, N-(3-(7-((6-(4-((1-(5-((2-(2,6-Dioxopiperidin-3-yl)-1,3-dioxoisoindolin-4-yl)oxy)pentyl)-1H-1,2,3-triazol-4-yl)methyl)piperazin-1-v)pyridin-3-yl)amino)-1-methyl-2-oxo-1,4-dihydropyrimido[4,5-d]pyrimidin-3(2H)-yl)-4-methylphenyl)-3-(trifluoromethyl)benzamide]
logFC MAPK8 (P45983) ([1]; direction down): −0.8433
logFC MAPK8 (P45983) ([1]; direction of change down): −0.8433
logFC MAPK8 (P45983-1) ([1]; Experiment wp172, direction down): −0.376
logFC MAPK8 (P45983-1) ([1]; experiment wp172, direction of change down): −0.376
logFC EPHB3 (P54753) ([2]; Experiment wp114, direction of change down): −0.4175
logFC EPHB3 ([2]; protein EPHB3 (P54753), experiment wp114, down): −0.4175
logFC DDR2 (Q16832) ([3]; Experiment wp105, direction of change down): −0.4741
logFC DDR2 ([3]; protein DDR2 (Q16832), experiment wp105, down): −0.4741
logFC [4]: −0.3534

Cc1ccc(NC(=O)c2cccc(C(F)(F)F)c2)cc1N1Cc2cnc(Nc3ccc(N4CCN(CCCOc5cccc6c5C(=O)N(C5CCC(=O)NC5=O)C6=O)CC4)nc3)nc2N(C)C1=O (centres unmarked) [DB0662]
logFC of PDIK1L (Q8N165) [5]: −0.3272
logFC [5]: −0.3272

Cc1ccc(NC(=O)c2cccc(C(F)(F)F)c2)cc1N1Cc2cnc(Nc3ccc(N4CCN(CCCCCCOc5cccc6c5C(=O)N(C5CCC(=O)NC5=O)C6=O)CC4)nc3)nc2N(C)C1=O (centres unmarked) [DB0663]
logFC DGKD [6]: −0.5955

Cc1ccc(NC(=O)c2cccc(C(F)(F)F)c2)cc1N1Cc2cnc(Nc3ccc(N4CCN(CCCCC(=O)N[C@H](C(=O)N5C[C@H](O)C[C@H]5C(=O)N[C@@H](C)c5ccc(-c6scnc6C)cc5)C(C)(C)C)CC4)nc3)nc2N(C)C1=O [DB1113]
logFC of PDIK1L (Q8N165) [5]: −0.5334
logFC [5]: −0.5334

CC(C)S(=O)(=O)c1ccccc1Nc1nc(Nc2ccc(N3CCN(CCOCCNC(=O)CNc4cccc5c4C(=O)N(C4CCC(=O)NC4=O)C5=O)CC3)cc2)ncc1Cl (centres unmarked) [SK.3.91]
logFC MAST3 (O60307) ([7]; direction of change down): −0.4984
logFC MAST3 ([7]; protein MAST3 (O60307), down): −0.4984
logFC CDK9 (P50750) ([8]; Experiment wp160, 2 hr): −0.404
logFC of CDK9 (P50750) ([8]; Experiment wp160, 2 hr): −0.404
logFC CDK9 (P50750) ([8]; Experiment wp172): −1.423
logFC of CDK9 (P50750) ([8]; Experiment wp172): −1.423
logFC CDK9 (P50750) ([8]; experiment wp160, 4 hr): −1.068
logFC of CDK9 (P50750) ([8]; experiment wp160, 4 hr): −1.068
logFC of PRKAA1 (Q13131) ([9]; Experiment wp160, 2 hr): −0.3284
logFC PRKAA1 (Q13131) ([9]; Experiment wp160, 2 hr): −0.3284
logFC PRKAA1 (Q13131) ([9]; Experiment wp160, 4 hr): −0.6117
logFC of PRKAA1 (Q13131) ([9]; Experiment wp172): −0.4542
logFC PRKAA1 (Q13131) ([9]; Experiment wp172): −0.4542
logFC of PRKAA1 (Q13131) ([9]; experiment wp160, 4 hr): −0.6117
logFC ([10]; experiment wp107): −0.3692
logFC PRAG1 ([10]; experiment wp107): −0.3692
logFC ([10]; experiment wp133, 2 hr): −0.3667
logFC PRAG1 ([10]; experiment wp133, 2 hr): −0.3667
logFC ([10]; experiment wp133, 4 hr): −0.4352
logFC PRAG1 ([10]; experiment wp133, 4 hr): −0.4352

CC(C)S(=O)(=O)c1ccccc1Nc1nc(Nc2ccc(N3CCN(CCOCCOCCNC(=O)CNc4cccc5c4C(=O)N(C4CCC(=O)NC4=O)C5=O)CC3)cc2)ncc1Cl (centres unmarked) [TL12.186]
logFC ([10]; experiment wp131): −0.4243
logFC PRAG1 ([10]; experiment wp131): −0.4243
logFC ([10]; experiment wp137): −0.3459
logFC PRAG1 ([10]; experiment wp137): −0.3459
